Measurements published in US20090192123A1, “Use of dipyridamole or mopidamole for treatment and prevention of thrombo-embolic diseases and disorders caused by excessive formation of Thrombin and/or by elevated expression of Thrombin receptors” (BOEHRINGER INGELHEIM INTERNATIONAL GMBH, priority 2003, published 2009).

Tests used:
[1] = test system: Thrombin receptor (PAR-1); test: Thrombin receptor (PAR-1) expression on platelets of post-stroke patients during treatment, flow cytometry with antibodies; type: in vivo, human; conditions: for Thrombin receptor (PAR-1) SPAN 12 (intact receptor) / Thrombin receptor (PAR-1) WEDE 15 (cleaved receptor): platelets of stroke patients, relative number, mean ± SD; for Change of intact (complete) and cleaved Thrombin receptor expression on platelets, in words: stroke patients, course of treatment of 30 days / one month, platelets ex vivo
Experimental: In order to study the inhibition of Thrombin receptor expression, patients surviving a stroke have been treated with conventional antiplatelet therapy (oral ASA) or a combination of Dipyridamole and ASA (Aggrenox) and thrombin receptor expression was measured during the course of treatment of one month. The expression of the complete as well as the cleaved Thrombin receptor was measured by flow cytometry using well established antibody technology on platelets after venipuncture.
Inhibition of Thrombin Receptor Expression in Platelets—by the Dipyridamole
Table 1 represents the mean and standard deviation of the relative numbers of expressed intact as well as cleaved Thrombin receptors on platelets over time after initiation of treatment with either ASA or the combination of Dipyridamole and ASA.

[2] = ESPS-2 clinical study, compared with low-dose aspirin / aspirin alone; cited from earlier work
[3] = Baseline (n = 15), flow cytometry

Row | SMILES | Thrombin receptor (PAR-1) SPAN 12 (intact receptor) ([1]; 24 hr of treatment (n = 15)) | Thrombin receptor (PAR-1) WEDE 15 (cleaved receptor) ([1]; 24 hr of treatment (n = 15)) | Thrombin receptor (PAR-1) SPAN 12 (intact receptor) ([1]; 3 days of treatment (n = 15)) | Thrombin receptor (PAR-1) WEDE 15 (cleaved receptor) ([1]; 3 days of treatment (n = 15)) | Thrombin receptor (PAR-1) SPAN 12 (intact receptor) ([1]; 7 days of treatment (n = 15)) | Thrombin receptor (PAR-1) WEDE 15 (cleaved receptor) ([1]; 7 days of treatment (n = 15)) | Thrombin receptor (PAR-1) SPAN 12 (intact receptor) ([1]; 15 days of treatment (n = 14)) | Thrombin receptor (PAR-1) WEDE 15 (cleaved receptor) ([1]; 15 days of treatment (n = 14)) | Thrombin receptor (PAR-1) SPAN 12 (intact receptor) ([1]; 30 days of treatment (n = 12)) | Thrombin receptor (PAR-1) WEDE 15 (cleaved receptor) ([1]; 30 days of treatment (n = 12)) | Thrombin receptor (PAR-1) SPAN 12 (intact receptor) [1, 3] | Thrombin receptor (PAR-1) WEDE 15 (cleaved receptor) [1, 3] | Change of intact (complete) and cleaved Thrombin receptor expression on platelets, in words [1] | Reduction of stroke risk, in words [2]
1 | CC(=O)Oc1ccccc1C(=O)O [ASA, acetylsalicalic acid] | 37 ± 7 | 21.9 ± 4.6 | 28 ± 9 | 15.3 ± 3.3 | 24 ± 5 | 17.1 ± 6.1 | 26 ± 4.* | 16.9 ± 7.5 | 22 ± 7 | 14.2 ± 5.0 | 34 ± 7 | 21.0 ± 5.3 | mild reduction | –
2 | OCCN(CCO)c1nc(N2CCCCC2)c2nc(N(CCO)CCO)nc(N3CCCCC3)c2n1 [Dipyridamole, 2,6-bis(diethanolamino)-4,8-dipiperidino-pyrimido[5,4-d]pyrimidine] | – | – | – | – | – | – | – | – | – | – | – | – | significant reduction | as effective as low-dose aspirin
